Experiments:
[1] = tested on: carp (Cyprinus carpio) erythrocytes; conditions: fish injected with 0.4 mg colchicine/kg body weight; background 2%; cited from earlier work
KCB cells = conditions: 12-14 hours exposure
Method: The inventive cells were cryopreserved in a solution consisting of 10% DMSO and 10% FBS (fetal-bovine-serum) in MEM (minimum-essential-medium) at −80° C. The cells were thawed, washed with MEM and transferred to a 96 micro-well plate. In order to avoid evaporation of medium and consequent bias in MN frequency, the outer wells were left empty and the micro-well plate was sealed with duct tape. The inner wells were filled with cells in medium. The medium employed was composed of 86% MEM, 10% FBS, 1% non-essential-amino acids, 1% streptomycin (5 mg/ml in PBS—phosphate-buffered saline), 1% penicillin (3.125 mg/ml in PBS) and 1% amphotericin (250 μg/ml in deionized water). The cells were cultivated at 26° C. until they formed a moderately dense monolayer. The time until optimal monolayer density was achieved varied from two to five days.
Two untreated (i.e. not exposed to genotoxic compounds) columns served as internal (negative) controls of each plate.
It is possible, but not absolutely necessary, to replace the exposure medium by a recovery medium before the scoring. The scoring of micronuclei shall take place earliest 2 hours and latest 12 hours after the end of the exposure period.
In the basic test, a minimum of two pictures per well, corresponding to at least 24 pictures per concentration or control, were taken under a fluorescence microscope with an objective magnification of 40×. Normal cell nuclei, MN and fragmented nuclei in each picture were counted visually with aid of the “Cell Counter” plugin from the public domain image processing software “ImageJ”. Finally, the frequencies of MN per concentration were calculated.

human lymphocytes = conditions: colchicine 0.06 μM, 24 hours; controls 1%; cited from earlier work
human skin fibroblasts = conditions: colchicine 20 ng/mL (around 0.05 μM), 72 hours; background 0.2-0.9%; cited from earlier work

SMILES	MN frequency [1]	concentrations at which a cytotoxic threshold may have been achieved (MN frequency diminishing or stabilizing) (KCB cells)	maximal MN frequency (KCB cells; colchicine at 0.375 μM) [%]	maximal frequency of fragmented nuclei (KCB cells; colchicine at 0.5 μM) [%]	MN frequency (human lymphocytes)	MN frequency (human skin fibroblasts)
COc1cc2c(c(OC)c1OC)-c1ccc(OC)c(=O)cc1[C@@H](NC(C)=O)CC2 [colchicine]	around 10%	higher than 0.188 μM	1.77	6.85	around 15.2%	up to 4.7%
O=[N+]([O-])c1cc[n+]([O-])c2ccccc12 [4NQO, 4-Nitroquinoline 1-oxide]		≥ 600 nM				

Reference: US20190113503A1 (priority 2016, published 2019)
